Measurements reported in the NIST ThermoML archive (doi:10.1016/j.fluid.2011.08.018).
Numbers after ± are expanded uncertainties.

Assay: mean ionic activity coefficient (dimensionless); mn = molality of the nth substance listed, in mol/kg
Conditions: 298.15 K, 101 kPa, Liquid, EMF measurements

## [Cl-].[Na+] [sodium chloride] + O
m1 = 0.0496
  mean ionic activity coefficient: 0.819 ± 0.01
m1 = 0.1857
  mean ionic activity coefficient: 0.733 ± 0.01
m1 = 0.1979
  mean ionic activity coefficient: 0.733 ± 0.01
m1 = 0.3096
  mean ionic activity coefficient: 0.707 ± 0.01
m1 = 0.3711
  mean ionic activity coefficient: 0.689 ± 0.01
m1 = 0.4571
  mean ionic activity coefficient: 0.686 ± 0.01
m1 = 0.5916
  mean ionic activity coefficient: 0.675 ± 0.01
m1 = 0.6871
  mean ionic activity coefficient: 0.659 ± 0.01
m1 = 0.8318
  mean ionic activity coefficient: 0.663 ± 0.01
m1 = 1.139
  mean ionic activity coefficient: 0.651 ± 0.01
m1 = 1.212
  mean ionic activity coefficient: 0.659 ± 0.01
m1 = 1.77
  mean ionic activity coefficient: 0.657 ± 0.01
m1 = 1.87
  mean ionic activity coefficient: 0.67 ± 0.01
m1 = 2.394
  mean ionic activity coefficient: 0.68 ± 0.01
m1 = 2.624
  mean ionic activity coefficient: 0.702 ± 0.01
m1 = 3.587
  mean ionic activity coefficient: 0.75 ± 0.01
m1 = 3.811
  mean ionic activity coefficient: 0.78 ± 0.01
m1 = 4.654
  mean ionic activity coefficient: 0.83 ± 0.01
m1 = 5.142
  mean ionic activity coefficient: 0.891 ± 0.01
m1 = 5.443
  mean ionic activity coefficient: 0.921 ± 0.01
m1 = 5.693
  mean ionic activity coefficient: 0.929 ± 0.01
m1 = 5.891
  mean ionic activity coefficient: 0.97 ± 0.01
m1 = 6.032
  mean ionic activity coefficient: 0.985 ± 0.01
m1 = 6.085
  mean ionic activity coefficient: 0.976 ± 0.01
m1 = 6.1
  mean ionic activity coefficient: 0.997 ± 0.01

## [Cl-].[Na+] [sodium chloride] + CNC=O
m1 = 0.0396
  mean ionic activity coefficient: 0.986 ± 0.01
m1 = 0.052
  mean ionic activity coefficient: 0.985 ± 0.01
m1 = 0.0642
  mean ionic activity coefficient: 0.983 ± 0.01
m1 = 0.102
  mean ionic activity coefficient: 0.984 ± 0.01
m1 = 0.1375
  mean ionic activity coefficient: 0.984 ± 0.01
m1 = 0.1655
  mean ionic activity coefficient: 0.978 ± 0.01
m1 = 0.1934
  mean ionic activity coefficient: 0.971 ± 0.01
